Test system: ZEAMX
Assay: Drought stress test on crop plants in greenhouse, spray application
Assay type: in vivo, Zea mays
Conditions: dosage 250 g/ha, efficacy = percentage reduction in intensity of damage, mean of three results
Method: (§1) Seeds of monocotyledonous and dicotyledonous crop plants were laid out in sandy loam in wood-fiber pots, covered with soil and cultivated in a greenhouse under good growth conditions. The test plants were treated at the early leaf stage (BBCH10-BBCH13). To ensure uniform water supply before commencement of stress, the potted plants were supplied with the maximum amount of water immediately beforehand by dam irrigation and, after application, transferred in plastic inserts in order to prevent subsequent, excessively rapid drying. The inventive compounds, formulated in the form of wettable powders (WP), wettable granules (WG), suspension concentrates (SC) or emulsion concentrates (EC), were sprayed onto the green parts of the plants as an aqueous suspension at an equivalent water application rate of 600 l/ha with addition of 0.2% wetting agent (agrotin). Substance application is followed immediately by stress treatment of the plants (cold or drought stress). For cold stress treatment, the plants were kept under the following controlled conditions: • “day”: 12 hours with illumination at 8° C. • “night”: 12 hours without illumination at 1° C.
(§2) Drought stress was induced by gradual drying out under the following conditions: • “day”: 14 hours with illumination at 26° C. • “night”: 10 hours without illumination at 18° C.
(§3) The duration of the respective stress phases was guided mainly by the state of the untreated (=treated with blank formulation without test compound), stressed control plants and thus varied from crop to crop. It was ended (by re-irrigating or transfer to a greenhouse with good growth conditions) as soon as irreversible damage was observed on the untreated, stressed control plants. In the case of dicotyledonous crops, for example oilseed rape and soybeans, the duration of the drought stress phase varied between 3 and 5 days, in the case of monocotyledonous crops, for example wheat, barley or corn, between 6 and 10 days. The duration of the cold stress phase varied between 12 and 14 days.
(§4) The end of the stress phase was followed by an approx. 5-7-day recovery phase, during which the plants were once again kept under good growth conditions in a greenhouse. In order to rule out any influence of the effects observed by any fungicidal action of the test compounds, it was additionally ensured that the tests proceeded without fungal infection and without infection pressure.
(§5) After the recovery phase had ended, the intensities of damage were rated in visual comparison to untreated, unstressed controls of the same age (in the case of drought stress) or the same growth stage (in the case of cold stress). The intensity of damage was first assessed as a percentage (100%=plants have died, 0%=like control plants). These values were then used to calculate the efficacy of the test compounds (=percentage reduction in the intensity of damage as a result of substance application) by the following formula:
(§6) [formula] EF: efficacy (%) DVus: damage value of the untreated, stressed control DVts: damage value of the plants treated with test compound
(§7) The tables A-1 and B-1 to B-4 below list mean values in each case from three results of the same test.
(§8) Efficacies of selected compounds of the formula (I) under drought stress using the examples of HORVS, BRSNS, ZEAMX und TRZAS: […]

**Q.** Which “EF (ZEAMX)” value does the source give for `Cc1cccc2c1NC(c1ccoc1)NC2=O` (stereo not drawn) [I.4-84] here?
**A.** Its value is greater than 5%.

**Q.** Which “EF (ZEAMX)” value does the source give for `CN1c2ccccc2C(=O)NC1c1ccoc1` (stereo not drawn) [I.4-85] here?
**A.** Its value is greater than 5%.

**Q.** How did the “EF (ZEAMX)” value turn out when `O=c1[nH]c(-c2cc(Br)cs2)nc2c(Cl)cccc12` [I.1-201] was run?
**A.** The value was greater than 5%.

**Q.** How did the “EF (ZEAMX)” value turn out when `Cc1ccc2c(=O)[nH]c(-c3ccc(Cl)cc3)nc2c1` [I.1-318] was run?
**A.** Its value is greater than 5%.

**Q.** `CCN(CC)CCN1C(=O)c2cccc(OC)c2NC1c1ccc(C(F)(F)F)cc1Cl` (stereo not drawn) [I.4-324] was tested. Which “EF (ZEAMX)” value did it give?
**A.** Its value is greater than 5%.

**Q.** How did the “EF (ZEAMX)” value turn out when `O=c1[nH]c(COc2ccccc2)nc2cc(Cl)ccc12` [I.1-303] was run?
**A.** Its value is greater than 5%.

**Q.** Which “EF (ZEAMX)” value does the source give for `O=C1NC(c2ccc(Cl)cc2)Nc2cccc(F)c21` (stereo not drawn) [I.4-165] here?
**A.** Its value is greater than 5%.

**Q.** Which “EF (ZEAMX)” value does the source give for `CCOC(=O)c1c(C#N)nn2c1[nH]c(=O)c1ccccc12` [I.3-32] here?
**A.** The value was greater than 5%.

**Q.** For `Cn1cccc1-c1nc2cc(Cl)ccc2c(=O)[nH]1` [I.1-197], which “EF (ZEAMX)” value is on record?
**A.** Its value is greater than 5%.

**Q.** Which “EF (ZEAMX)” value does the source give for `O=C1NC(c2ccsc2)Nc2c(Cl)cccc21` (stereo not drawn) [I.4-181] here?
**A.** The value was greater than 5%.

**Q.** How did the “EF (ZEAMX)” value turn out when `Cc1cccc2c1C(=O)NC(c1ccsc1)N2` (stereo not drawn) [I.4-180] was run?
**A.** The value was greater than 5%.

**Q.** `CCn1ccc(C2NC(=O)c3cccc(OC)c3N2)n1` (stereo not drawn) [I.4-97] was tested. Which “EF (ZEAMX)” value did it give?
**A.** The value was greater than 5%.

**Q.** Which “EF (ZEAMX)” value does the source give for `O=C1NC(c2ccc(F)cc2F)Nc2c(Cl)cccc21` (stereo not drawn) [I.4-175] here?
**A.** Its value is greater than 5%.

**Q.** With `COc1cc2nc(-c3ccoc3)[nH]c(=O)c2cc1OC` [I.1-424] as the compound, how does the “EF (ZEAMX)” value read?
**A.** Its value is greater than 5%.

**Q.** With `O=C1NC(c2ccsc2)Nc2cccc(F)c21` (stereo not drawn) [I.4-177] as the compound, how does the “EF (ZEAMX)” value read?
**A.** The value was greater than 5%.

**Q.** Which “EF (ZEAMX)” value does the source give for `O=c1[nH]c2c(-c3ccc(Cl)cc3)c(C(F)(F)F)nn2c2ccccc12` [I.3-17, 3-(4-Chlorophenyl)-2-(trifluoromethyl)pyrazolo[1,5-a]quinazolin-5(4H)-one] here?
**A.** The value was greater than 5%.

**Q.** With `Cc1ccc(C2NC(=O)c3cccc(Cl)c3N2)c(Cl)c1` (stereo not drawn) [I.4-295] as the compound, how does the “EF (ZEAMX)” value read?
**A.** Its value is greater than 5%.

Same assay, conditions: dosage 500 g/ha, efficacy = percentage reduction in intensity of damage, mean of three results

**Q.** How did the “EF (ZEAMX)” value turn out when `Cc1nc[nH]c1-c1nc2cc(Cl)ccc2c(=O)[nH]1` [I.1-139] was run?
**A.** Its value is greater than 5%.

**Q.** How did the “EF (ZEAMX)” value turn out when `CC(C)c1nc2ccccc2c(=O)[nH]1` [I.1-15] was run?
**A.** Its value is greater than 5%.

**Q.** For `Cc1cc(-c2nc3ccccc3c(=O)[nH]2)oc1C` [I.1-45], which “EF (ZEAMX)” value is on record?
**A.** The value was greater than 5%.

**Q.** Which “EF (ZEAMX)” value does the source give for `O=c1[nH]c(C2CCCC2)nc2c(O)cccc12` [I.1-148] here?
**A.** Its value is greater than 5%.

**Q.** With `Cc1ccc(-c2nc3ccccc3c(=O)[nH]2)o1` [I.1-44] as the compound, how does the “EF (ZEAMX)” value read?
**A.** Its value is greater than 5%.

**Q.** For `O=c1[nH]c(-c2nc[nH]n2)nc2ccccc12` [I.1-30], which “EF (ZEAMX)” value is on record?
**A.** The value was greater than 5%.

**Q.** For `COc1cccc2c(=O)[nH]c(C3CCCC3)nc12` [I.1-157], which “EF (ZEAMX)” value is on record?
**A.** The value was greater than 5%.

**Q.** Which “EF (ZEAMX)” value does the source give for `CCCCCc1nc2c(OC)cccc2c(=O)[nH]1` [I.1-153] here?
**A.** The value was greater than 5%.

Same assay, conditions: dosage 1000 g/ha, efficacy = percentage reduction in intensity of damage, mean of three results

**Q.** Which “EF (ZEAMX)” value does the source give for `Cc1cccc2c1NC(c1ccc(C(F)(F)F)cc1)NC2=O` (stereo not drawn) [I.4-21] here?
**A.** Its value is greater than 5%.

Test system: BRSNS
Assay: as above
Assay type: in vivo, Brassica napes
Conditions: dosage 50 g/ha, efficacy = percentage reduction in intensity of damage, mean of three results
Method: as §1, §2, §3, §4, §5, §6, §7, §8

**Q.** `Cc1cccc2c(=O)[nH]c(CCc3ccccc3)nc12` [I.1-145] was tested. Which “EF (BRSNS)” value did it give?
**A.** The value was greater than 5%.

Same assay, conditions: dosage 250 g/ha, efficacy = percentage reduction in intensity of damage, mean of three results

**Q.** With `O=c1[nH]c(-c2ccc(C#Cc3ccccc3F)o2)nc2cc(Cl)ccc12` [I.1-181] as the compound, how does the “EF (BRSNS)” value read?
**A.** Its value is greater than 5%.

**Q.** With `COc1cccc2c1NC(CCc1ccccc1)NC2=O` (stereo not drawn) [I.4-16] as the compound, how does the “EF (BRSNS)” value read?
**A.** Its value is greater than 5%.

**Q.** With `O=C1NC(c2ccsc2)Nc2c(Cl)cccc21` (stereo not drawn) [I.4-181] as the compound, how does the “EF (BRSNS)” value read?
**A.** The value was greater than 5%.

**Q.** `COc1cc(/C=C/C2NC(=O)c3ccccc3N2C)cc(OC)c1O` (stereo not drawn) [I.4-90] was tested. Which “EF (BRSNS)” value did it give?
**A.** Its value is greater than 5%.

**Q.** For `Cc1nn2c([nH]c(=O)c3ccccc32)c1-c1ccccc1` [I.3-1], which “EF (BRSNS)” value is on record?
**A.** Its value is greater than 5%.

**Q.** Which “EF (BRSNS)” value does the source give for `O=c1[nH]c2c(-c3ccc(Cl)cc3)c(C(F)(F)F)nn2c2ccccc12` [I.3-17, 3-(4-Chlorophenyl)-2-(trifluoromethyl)pyrazolo[1,5-a]quinazolin-5(4H)-one] here?
**A.** Its value is greater than 5%.

Same assay, conditions: dosage 500 g/ha, efficacy = percentage reduction in intensity of damage, mean of three results

**Q.** For `CCCCCc1nc2c(OC)cccc2c(=O)[nH]1` [I.1-153], which “EF (BRSNS)” value is on record?
**A.** Its value is greater than 5%.

Test system: TRZAS
Assay: as above
Assay type: in vivo, Triticum aestivum
Conditions: dosage 250 g/ha, efficacy = percentage reduction in intensity of damage, mean of three results
Method: as §1, §2, §3, §4, §5, §6, §7, §8

**Q.** Which “EF (TRZAS)” value does the source give for `Cc1cccc2c(=O)[nH]c(-c3ccc(Br)cc3)nc12` [I.1-378] here?
**A.** Its value is greater than 5%.

**Q.** `O=C1NC(c2ccc(Br)cc2F)Nc2cccc(F)c21` (stereo not drawn) [I.4-227] was tested. Which “EF (TRZAS)” value did it give?
**A.** The value was greater than 5%.

**Q.** For `Cn1cccc1-c1nc2cc(Cl)ccc2c(=O)[nH]1` [I.1-197], which “EF (TRZAS)” value is on record?
**A.** Its value is greater than 5%.

**Q.** For `CCn1ccc(C2NC(=O)c3cccc(OC)c3N2)n1` (stereo not drawn) [I.4-97], which “EF (TRZAS)” value is on record?
**A.** Its value is greater than 5%.

**Q.** How did the “EF (TRZAS)” value turn out when `Cc1ccc(C2NC(=O)c3c(C)cccc3N2)cc1` (stereo not drawn) [I.4-193] was run?
**A.** The value was greater than 5%.

Reference: US9006265B2, “Substituted fused pyrimidinones and dihydropyrimidinones” (Bayer Intellectual Property GmbH, priority 2010, dated 2015)
